Test results from patent US7205433B2, “Crystal of amino acid ester salt and process for producing the same” (Ajinomoto Co., Inc., priority 2002, dated 2007).

What was measured:
Assay type in all cases: physicochemical
[1] = Experimental Example 1: comparison of hygroscopicity by weight gain over time (44 to 45% RH); details: 22 to 24° C.
Protocol: L-Ala-OEt HCl salt and L-Ala-OEt MsOH salt were measured into in a glass container in an amount of 1.6 g each, dried in vacuo at 30° C. for 5 hours, left under conditions of temperature: 22 to 24° C., humidity: 44 to 45% RH, and then the hygroscopicity was compared based on the weight gain over the lapse of time. […] The liquefied portion increased with the lapse of time, and the entire salt became liquid 750 minutes later with no observable crystal.

[2] = Experimental Example 4: comparison of hygroscopicity by weight gain over time (40 to 46% RH); details: 24° C.
Protocol: The L-Ala-OEt HCl salt, L-Ala-OEt MsOH salt, L-Ala-OEt BsOH salt, L-Ala-OEt 4-CBS salt, L-Ala-OEt 4-EBS salt, L-Ala-OEt 2,4-DMBS salt, and L-Ala-OEt 2,5-DMBS salt were measured in an amount of about 0.3 g each, left standing in a thermostatic chamber at a temperature of 24° C. and a humidity of 40 to 46% RH, and the hygroscopicity was compared based on the weight gain with the lapse of time. A part of the crystal of the L-Ala-OEt HCl salt was liquefied in 30 minutes, and the liquefied portion increased thereafter with the lapse of time. After 100 minutes, the whole mass became like a sherbet.

[3] = Experimental Example 2: comparison of hygroscopicity by weight gain over time (62 to 64% RH); details: 24° C.
Protocol: In the same manner as in Experimental Example 1, L-Ala-OEt MsOH salt and L-Ala-OMe HCl salt were measured into a glass container in an amount of 0.6 g each, left under conditions of temperature: 24° C., humidity: 62 to 64% RH, and then the hygroscopicity was compared based on the weight gain with the lapse of time.

[4] = Experimental Example 5: comparison of hygroscopicity by weight gain over time (60 to 66% RH); details: 24 EC
Protocol: The L-Ala-OMe HCl salt, L-Ala-OEt MsOH salt, L-Ala-OEt BsOH salt, L-Ala-OEt 4-CBS salt, L-Ala-OEt 4-EBS salt, L-Ala-OEt 2,4-DMBS salt, and L-Ala-OEt 2,5-DMBS salt were measured in an amount of about 0.3 g each, left standing in a thermostatic chamber at a temperature of 24 EC and a humidity of 60 to 66% RH, and the hygroscopicity was compared based on the weight gain with the lapse of time.

[5] = Experimental Example 7: evaluation of hygroscopicity by weight gain over time (60 to 66% RH); details: 24 EC
Protocol: The L-Ala-OMe HCl salt, L-Ala-OMe 4-EBS salt, L-Ala-OMe 2,4-DMBS salt, and L-Ala-OMe 2,5-DMBS salt were measured in an amount of about 0.3 g each, left standing in a thermostatic chamber at temperature of 24 EC and a humidity of 60 to 66% RH, and the hygroscopicity was compared based on the weight gain with the lapse of time. A part of the crystal of the L-Ala-OMe HCl salt was liquefied in 10 minutes, and the entirety became a sherbet in 20 minute. The liquefied portion increased thereafter with the lapse of time. After 80 minutes, the whole was liquefied.

SMILES: CCOC(=O)[C@H](C)N.Cl [L-Ala-OEt HCl salt, alanine ethyl ester hydrochloride]
- time to liquefaction of a part of the crystals [1]: 60 min
- time until the entire salt became liquid [1]: 750 min
- weight increase rate (% relative to initial weight) ([1]; 0 minutes): 0.00%
- weight increase rate (% relative to initial weight) ([1]; 1 minutes): 1.63%
- weight increase rate (% relative to initial weight) ([1]; 2 minutes): 1.67%
- weight increase rate (% relative to initial weight) ([1]; 3 minutes): 1.72%
- weight increase rate (% relative to initial weight) ([1]; 4 minutes): 1.73%
- weight increase rate (% relative to initial weight) ([1]; 6 minutes): 1.80%
- weight increase rate (% relative to initial weight) ([1]; 10 minutes): 1.95%
- weight increase rate (% relative to initial weight) ([1]; 15 minutes): 2.07%
- weight increase rate (% relative to initial weight) ([1]; 25 minutes): 2.29%
- weight increase rate (% relative to initial weight) ([1]; 35 minutes): 2.55%
- weight increase rate (% relative to initial weight) ([1]; 50 minutes): 2.88%
- state of the crystals ([1]; 60 minutes): (partly liquefied)
- weight increase rate (% relative to initial weight) ([1]; 60 minutes): 3.09%
- weight increase rate (% relative to initial weight) ([1]; 75 minutes): 3.38%
- weight increase rate (% relative to initial weight) ([1]; 90 minutes): 3.63%
- weight increase rate (% relative to initial weight) ([1]; 120 minutes): 4.10%
- weight increase rate (% relative to initial weight) ([1]; 150 minutes): 4.41%
- weight increase rate (% relative to initial weight) ([1]; 180 minutes): 4.89%
- state of the crystals ([1]; 750 minutes): (whole liquid)
- weight increase rate (% relative to initial weight) ([1]; 750 minutes): 14.37%
- time until a part of the crystal was liquefied [2]: 30 min
- time until the whole mass became like a sherbet [2]: 100 min
- weight increase rate (%) ([2]; 0 minutes): 0.00%
- weight increase rate (%) ([2]; 15 minutes): 2.63%
- weight increase rate (%) ([2]; 30 minutes): 4.56%
- weight increase rate (%) ([2]; 45 minutes): 6.42%
- weight increase rate (%) ([2]; 60 minutes): 7.76%
- weight increase rate (%) ([2]; 75 minutes): 8.82%
- weight increase rate (%) ([2]; 90 minutes): 9.53%
- weight increase rate (%) ([2]; 120 minutes): 9.89%
- weight increase rate (%) ([2]; 150 minutes): 10.39%
- weight increase rate (%) ([2]; 180 minutes): 10.69%

SMILES: COC(=O)[C@H](C)N.Cl [L-Ala-OMe HCl salt, alanine methyl ester hydrochloride, reference compound]
- time to liquefaction of a part of the crystals [3]: 20 min
- time until the entire salt became liquid [3]: 155 min
- weight increase rate (% relative to initial weight) ([3]; 0 minutes): 0.00%
- weight increase rate (% relative to initial weight) ([3]; 10 minutes): 0.11%
- state of the crystals ([3]; 20 minutes): (partly liquefied)
- weight increase rate (% relative to initial weight) ([3]; 20 minutes): 0.54%
- weight increase rate (% relative to initial weight) ([3]; 35 minutes): 1.04%
- weight increase rate (% relative to initial weight) ([3]; 50 minutes): 1.67%
- state of the crystals ([3]; 65 minutes): (whole sherbet)
- weight increase rate (% relative to initial weight) ([3]; 65 minutes): 2.27%
- weight increase rate (% relative to initial weight) ([3]; 80 minutes): 2.83%
- weight increase rate (% relative to initial weight) ([3]; 95 minutes): 3.36%
- weight increase rate (% relative to initial weight) ([3]; 110 minutes): 3.97%
- weight increase rate (% relative to initial weight) ([3]; 125 minutes): 4.54%
- weight increase rate (% relative to initial weight) ([3]; 140 minutes): 5.13%
- state of the crystals ([3]; 155 minutes): (whole liquid)
- weight increase rate (% relative to initial weight) ([3]; 155 minutes): 5.48%
- weight increase rate (% relative to initial weight) ([3]; 170 minutes): 6.02%
- weight increase rate (% relative to initial weight) ([3]; 185 minutes): 6.56%
- weight increase rate (% relative to initial weight) ([3]; 200 minutes): 7.03%
- time until a part of the crystal was liquefied [4]: 35 min
- time until the whole mass was like a sherbet [4]: 125 min
- weight increase rate (%) ([4]; 0 minutes): 0.00%
- weight increase rate (%) ([4]; 10 minutes): 3.03%
- weight increase rate (%) ([4]; 20 minutes): 4.85%
- weight increase rate (%) ([4]; 35 minutes): 7.30%
- weight increase rate (%) ([4]; 50 minutes): 8.84%
- weight increase rate (%) ([4]; 65 minutes): 10.42%
- weight increase rate (%) ([4]; 80 minutes): 11.65%
- weight increase rate (%) ([4]; 95 minutes): 12.77%
- weight increase rate (%) ([4]; 110 minutes): 13.69%
- weight increase rate (%) ([4]; 125 minutes): 14.74%
- weight increase rate (%) ([4]; 140 minutes): 15.46%
- weight increase rate (%) ([4]; 155 minutes): 16.23%
- weight increase rate (%) ([4]; 170 minutes): 16.88%
- weight increase rate (%) ([4]; 185 minutes): 17.43%
- weight increase rate (%) ([4]; 200 minutes): 17.77%
- time until a part of the crystal was liquefied [5]: 10 min
- time until the entirety became a sherbet [5]: 20 min
- time until the whole was liquefied [5]: 80 min
- weight increase rate (%) ([5]; 0 min): 0.00%
- state of the crystals ([5]; 10 min): (partly liquefied)
- weight increase rate (%) ([5]; 10 min): 6.74%
- state of the crystals ([5]; 20 min): (sherbet state)
- weight increase rate (%) ([5]; 20 min): 10.06%
- weight increase rate (%) ([5]; 35 min): 12.52%
- weight increase rate (%) ([5]; 50 min): 14.31%
- weight increase rate (%) ([5]; 65 min): 15.69%
- state of the crystals ([5]; 80 min): (entirely liquefied)
- weight increase rate (%) ([5]; 80 min): 17.16%
- weight increase rate (%) ([5]; 95 min): 18.31%
- weight increase rate (%) ([5]; 110 min): 19.42%
- weight increase rate (%) ([5]; 125 min): 20.54%
- weight increase rate (%) ([5]; 140 min): 21.66%
- weight increase rate (%) ([5]; 155 min): 22.62%
- weight increase rate (%) ([5]; 170 min): 23.55%
- weight increase rate (%) ([5]; 185 min): 24.41%
- weight increase rate (%) ([5]; 200 min): 25.14%
